Source: PMC8968952, “Modulation of ERCC1-XPF Heterodimerization Inhibition via Structural Modification of Small Molecule Inhibitor Side-Chains” (Frontiers in Oncology, 2022)

What was measured:
ERCC1-XPF = target: T1, ERCC1-XPF (Homo sapiens, UniProt Q92889); test: Steady state intrinsic fluorescence quenching binding assay; conditions: excitation 295 nm, emission 330 nm
T1 construct: the final purity of the full-length ERCC1-XPF heterodimer was determined to be ~35%; His6; made in house; host or cells: E. coli BL21(DE3)
T1 sequence (Q92889 1-916): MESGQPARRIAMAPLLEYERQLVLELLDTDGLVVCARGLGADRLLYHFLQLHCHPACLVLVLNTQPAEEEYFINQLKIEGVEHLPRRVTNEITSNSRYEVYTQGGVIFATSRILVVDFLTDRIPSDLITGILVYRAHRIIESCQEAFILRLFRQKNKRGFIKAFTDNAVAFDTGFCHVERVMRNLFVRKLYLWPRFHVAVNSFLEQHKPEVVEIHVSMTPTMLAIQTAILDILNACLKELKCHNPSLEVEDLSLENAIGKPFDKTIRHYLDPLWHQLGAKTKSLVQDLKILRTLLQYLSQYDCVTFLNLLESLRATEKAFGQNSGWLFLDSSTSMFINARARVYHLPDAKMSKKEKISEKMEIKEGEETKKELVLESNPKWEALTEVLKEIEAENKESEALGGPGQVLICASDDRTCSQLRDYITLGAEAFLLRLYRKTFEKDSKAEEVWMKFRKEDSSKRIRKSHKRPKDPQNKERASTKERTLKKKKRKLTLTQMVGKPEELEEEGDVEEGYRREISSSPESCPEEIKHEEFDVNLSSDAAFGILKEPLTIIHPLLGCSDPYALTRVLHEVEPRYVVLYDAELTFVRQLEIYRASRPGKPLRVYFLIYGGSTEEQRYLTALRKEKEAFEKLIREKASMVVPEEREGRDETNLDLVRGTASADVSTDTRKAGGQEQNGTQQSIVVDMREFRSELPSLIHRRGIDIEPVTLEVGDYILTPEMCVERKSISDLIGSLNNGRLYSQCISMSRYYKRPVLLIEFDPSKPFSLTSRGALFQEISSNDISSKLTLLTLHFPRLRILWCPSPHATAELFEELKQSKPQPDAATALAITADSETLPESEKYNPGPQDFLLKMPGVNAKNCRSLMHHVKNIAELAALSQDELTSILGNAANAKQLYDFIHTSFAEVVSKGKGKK
Protocol: Steady-state fluorescence spectra were measured at room temperature on a PerkinElmer LS-55 spectrofluorometer (Freemont, CA) as previously described ([70]). In studying the effects of inhibitors on protein fluorescence intensities, additions to protein samples were made from inhibitor stock solutions in DMSO, keeping the protein dilution below 3%. Data were plotted using GraphPad Prism version 5.04 software (San Diego, California)
Investigation of the binding of compound 6 to ERCC1-XPF was carried out via intrinsic fluorescence spectroscopy. The tryptophan residues of ERCC1-XPF were irradiated at 295 nm and the emission at 330 nm was monitored. Upon addition of compound 6 quenching of the intrinsic fluorescence of the protein was observed, consistent with ligand binding to a protein. The binding affinity was determined by plotting emission at 330 nm against increasing concentration of compound 6 ( Figure 3C ).

HCT-116 cells = test: Cytotoxicity assay using colony forming assay; assay type: cell-based, human; conditions: 0.5 μM
Protocol: HCT-116 cells were incubated with media containing a non-toxic concentration of 6 or 10 ( Supplementary Figure 3 ) prior to exposure to the DNA damaging agents. […]
nitrocellulose. Proteins were visualized using ERCC1 (A73368-100, 1:1000; EpiGentek), XPF (LS- […]
primary antibodies followed by secondary anti-mouse or anti-rabbit secondary HRP-conjugated secondary antibodies. ECL chemiluminescent substrate (Promega) was used to detect the proteins.
Supplementary Figure 3. Cytotoxicity assay using colony forming assay
4 HCT-116 Derived XPF Knockout Cells
For CRISPR deletion of XPF from HCT-116 cells, the pSpCas9(BB)-2A-GFP (pX458) vector (Addgene plasmid # 48138) was used. The short guide sequence to target XPF exon one was: 5'- […]
- 3' and target XPF exon eight was: 5'-
-3'. All short guide sequences oligonucleotides were synthesized, annealed and cloned into pX458 vector and were confirmed by DNA sequencing at DNA laboratory, University of Calgary. The DNA plasmid (pX458 containing XPF short guide RNA sequence, 5 µg) was transfected into HCT-116 cells using Lipofectamine 2000 (Invitrogen) according to the manufacturer’s instructions. Forty-eight hours after transfection, cells were harvested and genomic DNA was isolated using the KAPA Express Extract Kit (Kapa Biosystems) according to the manufacturer’s instructions. […]

Kd (ERCC1-XPF): 140 ± 10 nM
SMILES: COc1ccc2nc3cc(Cl)ccc3c(Nc3ccc(O)c(CN4CCN(CCN(C(C)C)C(C)C)CC4)c3)c2c1 [Compound 6]
toxicity of the concentration used (in words) (HCT-116 cells): non-toxic
